Measured values reported in patent US20230158161A1, “DRUG DELIVERY SYSTEMS COMPRISING AN INTRAOCULAR PRESSURE LOWERING AGENT, A NEUROTROPHIC AGENT, A C-TYPE NATRIURETIC PEPTIDE, A NATRIURETIC PEPTIDE RECEPTOR-B, AN APOPTOSIS SIGNALING FRAGMENT INHIBITOR OR A FAS-LIGAND INHIBITOR FOR TREATING GLAUCOMA OR OCULAR HYPERTENSION” (Cella Therapeutics, LLC, priority 2020, published 2023).

System: African Green monkeys
Experiment: IOP after intravitreal injection in African Green monkeys, PBS in the fellow eye as control
Type: in vivo, African Green monkey
Experimental: Eight African Green monkeys were screened to identify 4 animals with high-normal IOP. Animals were anesthetized with ketamine 10 mg/kg and Xylazine 0.5 mg/kg. Bimatoprost acid 100 ng in 50 μl was injected intravitreally in one eye through a 30-gauge syringe using a shelved technique, and 50 μl of phosphate buffered saline (PBS) was injected into the fellow eye as a concurrent control on days 0, 1, 2 at 8:30 pm. The bimatoprost acid dose was escalated to 200 ng in 100 μl, with the same volume of PBS given to the fellow eye, on days 3 (8:30 pm) and 4 (5:30 pm). IOP was measured with a Tonovet tonometer at 8:30 am, 11:30 am and 8:30 pm on day 1; 8:30 am, 11:30 am and 5:30 pm on day 4; and at 8:30 am on days 2, 3 and 5. The person measuring the IOP was masked to treatment assignment. Slit lamp exams were performed on day 0, 1 and 5. OCTs were performed at baseline and day 5.

For O=C(O)CCC/C=C\C[C@@H]1[C@@H](/C=C/[C@@H](O)CCc2ccccc2)[C@H](O)C[C@@H]1O [bimatoprost acid], the “reduction in IOP compared with the fellow eye” value (100 ng intravitreal, one of four animals (B392) responded, at 1 timepoint) was 30%, the “IOP reduced in the treated eye compared with the fellow eye receiving PBS” value (200 ng intravitreal, animal B392, day 5) was 52% and the “reduction in IOP compared with the fellow eye” value (200 ng intravitreal, three of four animals responded, at 1 or more timepoints) was 30%. The IOP response (animal B300, 100 ng and 200 ng intravitreal) was “did not respond to either dose” and the “IOP lowering effect, overall conclusion” value (intravitreal, dose-response between the 100 ng and 200 ng doses) was “clear IOP lowering-effect”.
